This is an account of results in patent US9446145B2, “Curcumin-antibody conjugates as anti-cancer agents” (priority 2009, dated 2016).

In one experiment the test system is GL261 glioblastoma cells. The experiment is described as follows: GL261 glioblastoma cell killing IC50 (same approach as for B16F10). Particulars: Mus musculus, solubilized non-targeted curcumin. It is filed as cell-based. On the procedure:
(§1) B16F10 melanoma cells were plated in a 96-well tissue culture plate with 2,000 cells in 50 μl of medium (DMEM+10% fetal bovine serum+1% penicillin-streptomycin) per well. After 24 hours, the targeted curcumin derivative (linked to 633 dye) was administered in a range of concentrations-10 nM, 20 nM, 30 nM, 50 nM, 100 nM. The product was diluted in neurobasal medium (+1% penicillin-streptomycin, 1% 1-glutamine, 2% B27 supplement), with 50 μl per well, and 2 wells per concentration. Control wells were treated with corresponding concentrations of free MUC18 antibody coupled to 633 dye. The plate was imaged after 24 hours using visible light and fluorescent microscopes. Using cell counts from four frames per well, the mean live cell number and mean standard deviation for each concentration (and its corresponding control) were found. The data was compiled and graphed on Kaleida Graph. […] See below. Each corresponding control well received the same amount of curcumin-free Mel-CAM-Dylight800.
The same approach used for the B16F10 melanoma cells (see above) was next used for the glioblastoma GL261 cells by attaching curcumin to an antibody against the […] antigen, which is expressed on the surface of grade III/IV glioblastoma (Strik, H. M., et al., Galectin-3: Cellular Distribution and Correlation with WHO-grade in Human Gliomas. Journal of Neuro-Oncology, 53(1): p. 13-20 (2001)). […]

The next experiment deals with B16F10 melanoma cells. In words: B16F10 melanoma cell death IC50 (live cell counts 24 h after treatment). The experiment is classed as cell-based. Particulars: Mus musculus, B16-F10, 24 h, free/solubilized curcumin, read-out: IC50 (concentration required for 50% B16F10 melanoma cell death). On the procedure: as §1
Determined using same methods as step 1a. Dilution of 100 nM, 200 nM, 300 nM, 400 nM, 500 nM, 1 μM, 10 μM, 20 μM, 30 μM, 40 μM, and 50 μM were made using a 40 mM stock solution of curcumin in DMSO. Curcumin IC50 was compared to curc-MUC18 IC50 using Kaleida Graph.

In the case of `COc1cc(C=CC(=O)CC(=O)C=Cc2ccc(O)c(OC)c2)ccc1O` [curcumin, 1,7-bis(4-hydroxy-3-methoxyphenyl)-1,6-heptadiene-3,5-dione], the IC50 in the experiment with GL261 glioblastoma cells was determined as 10 µM; with B16F10 melanoma cells it was 15 µM.
